Target: T1, HGFR (Homo sapiens, UniProt P08581)
T1 construct: purchased Upstate 14-526
Assay: HGFR continuous-coupled spectrophotometric assay
Format: biochemical
Conditions: at 1 μM; Table 8, library procedure 43; read-out: % Inhibition (percent c-MET inhibition)

T1 sequence (P08581 974-1390 limits assumed): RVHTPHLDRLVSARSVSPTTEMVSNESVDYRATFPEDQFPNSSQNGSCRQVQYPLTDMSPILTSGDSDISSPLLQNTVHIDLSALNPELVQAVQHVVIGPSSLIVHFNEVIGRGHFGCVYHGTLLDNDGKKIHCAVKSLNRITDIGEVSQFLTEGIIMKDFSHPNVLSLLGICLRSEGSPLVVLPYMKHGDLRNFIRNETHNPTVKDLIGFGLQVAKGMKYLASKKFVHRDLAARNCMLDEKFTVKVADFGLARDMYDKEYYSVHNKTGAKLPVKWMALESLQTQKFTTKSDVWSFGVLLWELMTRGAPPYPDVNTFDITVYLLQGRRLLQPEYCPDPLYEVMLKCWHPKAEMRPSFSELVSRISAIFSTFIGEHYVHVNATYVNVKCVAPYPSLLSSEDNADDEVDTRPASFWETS

| Compound | inhibition at 1 µM [%] |
| --- | --- |
| CC1CN(C(=O)c2ccc(-c3cnc(N)c(OCc4nccn4Cc4ccccc4)c3)cc2)CC(C)N1 (centres unmarked) | 11 |
| CC1CN(C(=O)c2ccc(-c3cnc(N)c(OCc4ccc(C#N)cc4)c3)cc2)CC(C)N1 (centres unmarked) | 13 |
| CC1CN(C(=O)c2ccc(-c3cnc(N)c(OCc4cccc(C#N)c4)c3)cc2)CC(C)N1 (centres unmarked) | 11 |
| CC1CN(C(=O)c2ccc(-c3cnc(N)c(OCc4ccc(OC(F)(F)F)cc4)c3)cc2)CC(C)N1 (centres unmarked) | 21 |
| CC1CN(C(=O)c2ccc(-c3cnc(N)c(OCc4cc(F)cc(F)c4)c3)cc2)CC(C)N1 (centres unmarked) | 12 |
| CC1CN(C(=O)c2ccc(-c3cnc(N)c(OCc4cccc(Cl)c4Cl)c3)cc2)CC(C)N1 (centres unmarked) | 40 |
| Cc1ccc(COc2cc(-c3ccc(C(=O)N4CC(C)NC(C)C4)cc3)cnc2N)cc1Cl (centres unmarked) | 27 |
| CC1CN(C(=O)c2ccc(-c3cnc(N)c(OCc4cc(Cl)ccc4Cl)c3)cc2)CC(C)N1 (centres unmarked) | 32 |
| CC1CN(C(=O)c2ccc(-c3cnc(N)c(OCc4nc(CS(=O)(=O)c5ccccn5)no4)c3)cc2)CC(C)N1 (centres unmarked) | 16 |
| CC1CN(C(=O)c2ccc(-c3cnc(N)c(OCc4cc(-c5c(Cl)cccc5Cl)no4)c3)cc2)CC(C)N1 (centres unmarked) | 16 |
| CC1CN(C(=O)c2ccc(-c3cnc(N)c(OCc4cccc(OC(F)(F)F)c4)c3)cc2)CC(C)N1 (centres unmarked) | 17 |
| Cc1cc(COc2cc(-c3ccc(C(=O)N4CC(C)NC(C)C4)cc3)cnc2N)nc(-c2ccc(C(F)(F)F)cn2)n1 (centres unmarked) | 7 |
| CC1CN(C(=O)c2ccc(-c3cnc(N)c(OCc4cc(F)ccc4Br)c3)cc2)CC(C)N1 (centres unmarked) | 21 |
| CC1CN(C(=O)c2ccc(-c3cnc(N)c(OCc4cccc(Cl)c4F)c3)cc2)CC(C)N1 (centres unmarked) | 28 |
| CC1CN(C(=O)c2ccc(-c3cnc(N)c(OCc4ccc(Cl)c(Cl)c4)c3)cc2)CC(C)N1 (centres unmarked) | 29 |
| CC1CN(C(=O)c2ccc(-c3cnc(N)c(OCc4cc(F)c(F)cc4F)c3)cc2)CC(C)N1 (centres unmarked) | 20 |
| CC1CN(C(=O)c2ccc(-c3cnc(N)c(OCc4ccc(F)c(F)c4F)c3)cc2)CC(C)N1 (centres unmarked) | 25 |
| CC1CN(C(=O)c2ccc(-c3cnc(N)c(OCc4ccc(C(F)(F)F)cc4C(F)(F)F)c3)cc2)CC(C)N1 (centres unmarked) | 22 |
| CC1CN(C(=O)c2ccc(-c3cnc(N)c(OCc4c(F)ccc(F)c4F)c3)cc2)CC(C)N1 (centres unmarked) | 41 |
| Cc1cccc(COc2cc(-c3ccc(C(=O)N4CC(C)NC(C)C4)cc3)cnc2N)c1F (centres unmarked) | 28 |
| CC1CN(C(=O)c2ccc(-c3cnc(N)c(OCc4ccc(-c5csnn5)cc4)c3)cc2)CC(C)N1 (centres unmarked) | 17 |

| Compound | inhibition at 1 µM [%] |
| --- | --- |
| CC1CN(C(=O)c2ccc(-c3cnc(N)c(OCc4cc(F)cc(C(F)(F)F)c4)c3)cc2)CC(C)N1 (centres unmarked) | 19 |
| CC1CN(C(=O)c2ccc(-c3cnc(N)c(OCc4c(F)cccc4C(F)(F)F)c3)cc2)CC(C)N1 (centres unmarked) | 33 |
| CC1CN(C(=O)c2ccc(-c3cnc(N)c(OCc4cc(F)c(F)c(F)c4)c3)cc2)CC(C)N1 (centres unmarked) | 11 |
| CC1CN(C(=O)c2ccc(-c3cnc(N)c(OCc4ccccc4OC(F)F)c3)cc2)CC(C)N1 (centres unmarked) | 24 |
| CC1CN(C(=O)c2ccc(-c3cnc(N)c(OCc4ccc(C(F)(F)F)cc4F)c3)cc2)CC(C)N1 (centres unmarked) | 24 |
| CC1CN(C(=O)c2ccc(-c3cnc(N)c(OCc4ccc(Br)cc4F)c3)cc2)CC(C)N1 (centres unmarked) | 29 |
| CC1CN(C(=O)c2ccc(-c3cnc(N)c(OCc4cc(Br)cc(Br)c4)c3)cc2)CC(C)N1 (centres unmarked) | 42 |
| CC1CN(C(=O)c2ccc(-c3cnc(N)c(OCc4ccc(-c5ccccc5C#N)cc4)c3)cc2)CC(C)N1 (centres unmarked) | 73 |
| CC1CN(C(=O)c2ccc(-c3cnc(N)c(OCc4cccc(F)c4F)c3)cc2)CC(C)N1 (centres unmarked) | 19 |
| CC1CN(C(=O)c2ccc(-c3cnc(N)c(OCc4ncc(C(F)(F)F)cc4Cl)c3)cc2)CC(C)N1 (centres unmarked) | 17 |
| Cc1noc(C)c1-c1nc(COc2cc(-c3ccc(C(=O)N4CC(C)NC(C)C4)cc3)cnc2N)no1 (centres unmarked) | 14 |
| COc1ccccc1-c1nc(COc2cc(-c3ccc(C(=O)N4CC(C)NC(C)C4)cc3)cnc2N)no1 (centres unmarked) | 9 |
| CC1CN(C(=O)c2ccc(-c3cnc(N)c(OCc4noc(-c5cccc(C(F)(F)F)c5)n4)c3)cc2)CC(C)N1 (centres unmarked) | 30 |
| CC1CN(C(=O)c2ccc(-c3cnc(N)c(OCc4nsc(Cl)n4)c3)cc2)CC(C)N1 (centres unmarked) | 6 |
| CC1CN(C(=O)c2ccc(-c3cnc(N)c(OCc4cc(Cl)cc(Cl)c4)c3)cc2)CC(C)N1 (centres unmarked) | 26 |
| CC1CN(C(=O)c2ccc(-c3cnc(N)c(OCc4cccc(Oc5ccccc5)c4)c3)cc2)CC(C)N1 (centres unmarked) | 32 |
| CC1CN(C(=O)c2ccc(-c3cnc(N)c(OCc4ccc(C(=O)N5CCN(Cc6ccccc6)CC5)cc4)c3)cc2)CC(C)N1 (centres unmarked) | 15 |
| CC1CN(C(=O)c2ccc(-c3cnc(N)c(OCc4cccc(C(=O)NCCc5ccccn5)c4)c3)cc2)CC(C)N1 (centres unmarked) | 18 |
| CC1CN(C(=O)c2ccc(-c3cnc(N)c(OCc4cccc(C(=O)NC5CCN(Cc6ccccc6)C5)c4)c3)cc2)CC(C)N1 (centres unmarked) | 18 |
| CC1CN(C(=O)c2ccc(-c3cnc(N)c(OCc4ccc(C(=O)NCCc5ccccn5)cc4)c3)cc2)CC(C)N1 (centres unmarked) | 19 |
| CC1CN(C(=O)c2ccc(-c3cnc(N)c(OCc4ccc(C(=O)NCCN5CCCC5)cc4)c3)cc2)CC(C)N1 (centres unmarked) | 12 |

| Compound | inhibition at 1 µM [%] |
| --- | --- |
| CCN1CCCC1CNC(=O)c1cccc(COc2cc(-c3ccc(C(=O)N4CC(C)NC(C)C4)cc3)cnc2N)c1 (centres unmarked) | 10 |
| Cc1ccc(F)c(COc2cc(-c3ccc(C(=O)N4CC(C)NC(C)C4)cc3)cnc2N)c1F (centres unmarked) | 35 |
| Cc1cc(COc2cc(-c3ccc(C(=O)N4CC(C)NC(C)C4)cc3)cnc2N)ccc1F (centres unmarked) | 16 |
| Cc1ccc(F)cc1COc1cc(-c2ccc(C(=O)N3CC(C)NC(C)C3)cc2)cnc1N (centres unmarked) | 28 |
| CC1CN(C(=O)c2ccc(-c3cnc(N)c(OCc4cccc(Br)c4)c3)cc2)CC(C)N1 (centres unmarked) | 21 |
| Cc1onc(-c2ccccc2)c1COc1cc(-c2ccc(C(=O)N3CC(C)NC(C)C3)cc2)cnc1N (centres unmarked) | 16 |
| CC1CN(C(=O)c2ccc(-c3cnc(N)c(OCc4cccc5cccnc45)c3)cc2)CC(C)N1 (centres unmarked) | 17 |
| CC1CN(C(=O)c2ccc(-c3cnc(N)c(OCc4c(-c5ccccc5)nn(C)c4Cl)c3)cc2)CC(C)N1 (centres unmarked) | 18 |
| Cc1ccc(-c2nnc(COc3cc(-c4ccc(C(=O)N5CC(C)NC(C)C5)cc4)cnc3N)o2)cc1 (centres unmarked) | 14 |
| CC1CN(C(=O)c2ccc(-c3cnc(N)c(OCc4cc(-c5ccccc5)no4)c3)cc2)CC(C)N1 (centres unmarked) | 16 |
| CC1CN(C(=O)c2ccc(-c3cnc(N)c(OCc4nccn4C)c3)cc2)CC(C)N1 (centres unmarked) | 12 |
| Cc1nc(COc2cc(-c3ccc(C(=O)N4CC(C)NC(C)C4)cc3)cnc2N)n(C)n1 (centres unmarked) | 13 |
| CC1CN(C(=O)c2ccc(-c3cnc(N)c(OCc4nnnn4Cc4ccccc4)c3)cc2)CC(C)N1 (centres unmarked) | 15 |
| CC1CN(C(=O)c2ccc(-c3cnc(N)c(OCc4nc5ccc(Cl)cc5[nH]4)c3)cc2)CC(C)N1 (centres unmarked) | 10 |
| CC1CN(C(=O)c2ccc(-c3cnc(N)c(OCc4cc5c(C(F)(F)F)nn(C)c5s4)c3)cc2)CC(C)N1 (centres unmarked) | 13 |
| CC1CN(C(=O)c2ccc(-c3cnc(N)c(OCc4nc(-c5ccccc5)nn4C)c3)cc2)CC(C)N1 (centres unmarked) | 13 |
| CC(C)Cc1noc(COc2cc(-c3ccc(C(=O)N4CC(C)NC(C)C4)cc3)cnc2N)n1 (centres unmarked) | 14 |
| CC1CN(C(=O)c2ccc(-c3cnc(N)c(OCc4ccc(Cl)cc4Br)c3)cc2)CC(C)N1 (centres unmarked) | 29 |
| CCOC(=O)c1nc(COc2cc(-c3ccc(C(=O)N4CC(C)NC(C)C4)cc3)cnc2N)no1 (centres unmarked) | 13 |

Same assay, conditions: cells prefixed Ki; read-out: Met Ki

| Compound | Ki [µM] |
| --- | --- |
| CC(Oc1cc(C#CC(C)(C)NC(=O)N2CCN(C)CC2)cnc1N)c1c(Cl)ccc(F)c1Cl (centres unmarked) [Example I-432, 4-Methyl-piperazine-1-carboxylic acid (3-{6-amino-5-[1-(2,6-dichloro-3-fluoro-phenyl)-ethoxy]-pyridin-3-yl}-1,1-dimethyl-prop-2-ynyl)-amide] | 0.61 |
| CC(Oc1cc(C#CC(C)(C)NC(=O)N2C[C@@H](C)N[C@@H](C)C2)cnc1N)c1c(Cl)ccc(F)c1Cl (stereo partly drawn) [Example I-433, (3R,5S)-3,5-Dimethyl-piperazine-1-carboxylic acid (3-{6-amino-5-[1-(2,6-dichloro-3-fluoro-phenyl)-ethoxy]-pyridin-3-yl}-1,1-dimethyl-prop-2-ynyl)-amide] | 1.5 |
| CC(Oc1cc(C#CC(C)(C)NC(=O)N2CCC[C@@H]2CN2CCCC2)cnc1N)c1c(Cl)ccc(F)c1Cl (stereo partly drawn) [Example I-434, (R)-2-Pyrrolidin-1-ylmethyl-pyrrolidine-1-carboxylic acid (3-{6-amino-5-[1-(2,6-dichloro-3-fluoro-phenyl)-ethoxy]-pyridin-3-yl}-1,1-dimethyl-prop-2-ynyl)-amide] | 1.22 |
| CC(Oc1cc(C#CC(C)(C)NC(=O)N2CCC[C@H]2CN2CCCC2)cnc1N)c1c(Cl)ccc(F)c1Cl (stereo partly drawn) [Example I-435, (S)-2-Pyrrolidin-1-ylmethyl-pyrrolidine-1-carboxylic acid (3-{6-amino-5-[1-(2,6-dichloro-3-fluoro-phenyl)-ethoxy]-pyridin-3-yl}-1,1-dimethyl-prop-2-ynyl)-amide] | 1.58 |
| CC(Oc1cc(C#CC(C)(C)NC(=O)NCCN2CCOCC2)cnc1N)c1c(Cl)ccc(F)c1Cl (centres unmarked) [Example I-436, 1-(3-{6-Amino-5-[1-(2,6-dicloro-3-fluoro-phenyl)-ethoxy]-pyridin-3-yl}-1,1-dimethyl-prop-2-ynyl)-3-(2-morpholin-4-yl-ethyl)-urea] | 1.11 |
| CC(Oc1cc(C#CC(C)(C)NC(=O)NCCN2CCCC2)cnc1N)c1c(Cl)ccc(F)c1Cl (centres unmarked) [Example I-437, 1-(3-{6-Amino-5-[1-(2,6-dicloro-3-fluoro-phenyl)-ethoxy]-pyridin-3-yl}-1,1-dimethyl-prop-2-ynyl)-3-(2-pyrrolidin-1-yl-ethyl)-urea] | 0.61 |
| CC(Oc1cc(C#CC(C)(C)NC(=O)N2CCC(N3CCCC3)CC2)cnc1N)c1c(Cl)ccc(F)c1Cl (centres unmarked) [Example I-438, 4-Pyrrolidin-1-yl-pipendine-1-carboxylic acid (3-{6-amino-5-[1-(2,6-dichloro-3-fluoro-phenyl)-ethoxy]-pyridin-3-yl}-1,1-dimethyl-prop-2-ynyl)-amide] | 0.72 |
